According to ChEMBL document CHEMBL3244132, “Semisynthetic aminoglycoside antibacterials. 6. Synthesis of sisomicin, Antibiotic G-52, and novel 6'-substituted analogues of sisomicin from aminoglycoside 66-40C” (J Med Chem, 1978):
The source made the active and inactive calls.

Assays:
Type in all cases: functional
Escherichia coli [1] = experiment: Antimicrobial activity against Escherichia coli ATCC 10536 by tube dilution method
Escherichia coli [2] = experiment: Antimicrobial activity against Escherichia coli Baker 2 carrying APH(3')-I by tube dilution method
Escherichia coli [3] = experiment: Antimicrobial activity against Escherichia coli LA290R55 carrying ANT(2'') by tube dilution method
Escherichia coli [4] = experiment: Antimicrobial activity against Escherichia coli JR88 carrying AAC(3) by tube dilution method
Escherichia coli [5] = experiment: Antimicrobial activity against Escherichia coli HL97/W677 carrying AAC(6') by tube dilution method
Pseudomonas aeruginosa [6] = experiment: Antimicrobial activity against Pseudomonas aeruginosa St. M. 762 by tube dilution method
Pseudomonas aeruginosa [7] = experiment: Antimicrobial activity against Pseudomonas aeruginosa St. M. 1395 by tube dilution method
Pseudomonas aeruginosa [8] = experiment: Antimicrobial activity against Pseudomonas aeruginosa Stone 130 carrying AAC(3) by tube dilution method
Pseudomonas aeruginosa [9] = experiment: Antimicrobial activity against Pseudomonas aeruginosa GN 315 carrying AAC(6') by tube dilution method
Klebsiella pneumoniae [10] = experiment: Antimicrobial activity against Klebsiella pneumoniae Adler 17 carrying APH(3')-I by tube dilution method
Klebsiella pneumoniae [11] = experiment: Antimicrobial activity against Klebsiella pneumoniae Georgetown 3694 carrying APH(2'') by tube dilution method
Providencia = experiment: Antimicrobial activity against Providencia 164 carrying AAC(2')-I by tube dilution method
Proteus mirabilis = experiment: Antimicrobial activity against Proteus mirabilis Harding by tube dilution method
Providencia rettgeri [12] = experiment: Antimicrobial activity against Providencia rettgeri Membel by tube dilution method
Providencia rettgeri [13] = experiment: Antimicrobial activity against Providencia rettgeri Anderson by tube dilution method
Serratia marcescens = experiment: Antimicrobial activity against Serratia marcescens Dalton by tube dilution method
Salmonella typhimurium = experiment: Antimicrobial activity against Salmonella typhimurium Gr. B. by tube dilution method; settings: Salmonella enterica subsp. enterica serovar Typhimurium
Bacillus subtilis = experiment: Antimicrobial activity against Bacillus subtilis ATCC 6633 by tube dilution method
Staphylococcus aureus [14] = experiment: Antimicrobial activity against Staphylococcus aureus 209 P by tube dilution method
Staphylococcus aureus [15] = experiment: Antimicrobial activity against Staphylococcus aureus Wood by tube dilution method
Staphylococcus aureus [16] = experiment: Antimicrobial activity against Staphylococcus aureus Ziegler by tube dilution method
Staphylococcus aureus [17] = experiment: Antimicrobial activity against Staphylococcus aureus 59N by tube dilution method
Streptococcus pyogenes [18] = experiment: Antimicrobial activity against Streptococcus pyogenes C by tube dilution method
Streptococcus pyogenes [19] = experiment: Antimicrobial activity against Streptococcus pyogenes 27 by tube dilution method
Streptococcus pyogenes [20] = experiment: Antimicrobial activity against Streptococcus pyogenes Group A Cruz by tube dilution method
Streptococcus pyogenes [21] = experiment: Antimicrobial activity against Streptococcus pyogenes Alvarez by tube dilution method
Trichomonas vaginalis = experiment: Antiprotozoal activity against Trichomonas vaginalis after 48 hrs
Entamoeba histolytica = experiment: Antiprotozoal activity against Entamoeba histolytica JH
Histomonas meleagridis = experiment: Antiprotozoal activity against Histomonas meleagridis

Measured: Activity

CN[C@@H]1[C@@H](O)[C@@H](O[C@@H]2[C@@H](O)[C@H](O[C@H]3OC(CNN4CCOCC4)=CC[C@H]3N)[C@@H](N)C[C@H]2N)OC[C@]1(C)O
inactive: all assays above

CN[C@@H]1[C@@H](O)[C@@H](O[C@@H]2[C@@H](O)[C@H](O[C@H]3OC(/C=N\O)=CC[C@H]3N)[C@@H](N)C[C@H]2N)OC[C@]1(C)O
inactive: all assays above

CN[C@@H]1[C@@H](O)[C@@H](O[C@@H]2[C@@H](O)[C@H](O[C@H]3OC(CNOC)=CC[C@H]3N)[C@@H](N)C[C@H]2N)OC[C@]1(C)O
inactive: all assays above

CN[C@@H]1[C@@H](O)[C@@H](O[C@@H]2[C@@H](O)[C@H](O[C@H]3O[C@H](C(C)N)[C@@H](O)[C@H](O)[C@H]3N)[C@@H](N)C[C@H]2N)OC[C@]1(C)O (stereo not given in full)
inactive: Trichomonas vaginalis | Entamoeba histolytica | Histomonas meleagridis

CN[C@@H]1[C@@H](O)[C@@H](O[C@@H]2[C@@H](O)[C@H](O[C@H]3OC(/C=N\OC)=CC[C@H]3N)[C@@H](N)C[C@H]2N)OC[C@]1(C)O
inactive: all assays above

CN[C@@H]1[C@@H](O)[C@@H](O[C@@H]2[C@@H](O)[C@H](O[C@H]3OC(CNN)=CC[C@H]3N)[C@@H](N)C[C@H]2N)OC[C@]1(C)O
inactive: all assays above

CN[C@@H]1[C@@H](O)[C@@H](O[C@@H]2[C@@H](O)[C@H](O[C@H]3O[C@H](CN)[C@@H](O)[C@H](O)[C@H]3N)[C@@H](N)C[C@H]2N)OC[C@]1(C)O
inactive: Trichomonas vaginalis | Entamoeba histolytica | Histomonas meleagridis

CN[C@@H]1[C@@H](O)[C@@H](O[C@@H]2[C@@H](O)[C@H](O[C@H]3OC(/C=N/N4CCOCC4)=CC[C@H]3N)[C@@H](N)C[C@H]2N)OC[C@]1(C)O
inactive: all assays above

CN[C@@H]1[C@@H](O)[C@@H](O[C@@H]2[C@@H](O)[C@H](O[C@H]3O[C@@H](CN)CC[C@H]3N)[C@@H](N)C[C@H]2N)OC[C@]1(C)O
inactive: Trichomonas vaginalis | Entamoeba histolytica | Histomonas meleagridis

CN[C@@H]1[C@@H](O)[C@@H](O[C@@H]2[C@@H](O)[C@H](O[C@H]3OC(/C=N\N)=CC[C@H]3N)[C@@H](N)C[C@H]2N)OC[C@]1(C)O
inactive: all assays above

CN[C@@H]1[C@@H](O)[C@@H](O[C@@H]2[C@@H](O)[C@H](O[C@H]3OC(C(C)N)CC[C@H]3N)[C@@H](N)C[C@H]2N)OC[C@]1(C)O (single isomer, unassigned)
inactive: Trichomonas vaginalis | Entamoeba histolytica | Histomonas meleagridis
